Reference: patent US12312332B2 (Merck Sharp & Dohme LLC., priority 2019, dated 2025)

Target: T1, human OX2R (Homo sapiens, UniProt O43614)
T1 construct: expressed in transfected cells; host or cells: Chinese hamster ovary (CHO) cells, kept under G418 selection
T1 sequence (O43614 1-444): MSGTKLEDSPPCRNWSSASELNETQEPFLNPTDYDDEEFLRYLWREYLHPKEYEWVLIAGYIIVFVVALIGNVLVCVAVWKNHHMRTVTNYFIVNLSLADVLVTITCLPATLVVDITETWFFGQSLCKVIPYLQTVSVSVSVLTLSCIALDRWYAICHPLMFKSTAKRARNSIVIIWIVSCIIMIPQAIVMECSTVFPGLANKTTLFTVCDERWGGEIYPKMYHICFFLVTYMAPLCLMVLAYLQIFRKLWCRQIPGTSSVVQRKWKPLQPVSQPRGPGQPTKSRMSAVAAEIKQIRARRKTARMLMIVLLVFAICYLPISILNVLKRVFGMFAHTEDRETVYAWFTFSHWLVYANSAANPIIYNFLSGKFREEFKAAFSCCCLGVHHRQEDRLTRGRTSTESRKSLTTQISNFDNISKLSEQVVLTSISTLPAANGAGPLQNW
Assay: IPOne (IP-One) orexin receptor agonist assay in CHO cells expressing human OX2R
Assay type: cell-based
Conditions: for EC50: CHO cells expressing human OX2R, IP-One detection, 2 hours incubation, four parameter logistic fit, read-out: OX2R Potency, EC50; for % max agonist effect (Emax): human OX2R, percentage of sample raw value/mean max effect (reference compound at 1 uM with 100% activity)

Row | SMILES | EC50 [nM] | % max agonist effect (Emax) [%]
1 | COC[C@@H]1C[C@H](NS(=O)(=O)N(C)C)[C@H](CO[C@H]2CC[C@@H](c3cccc(F)c3)CC2)N1c1cc(O)c(F)cn1 [Example 93, N′-((2R,3S,5S)-1-(5-fluoro-4-hydroxypyridin-2-yl)-2-((((CIS)-4-(3-fluorophenyl)cyclohexyl)oxy)methyl)-5-(methoxymethyl)pyrrolidin-3-yl)-N,N-dimethyl-sulfamide] | 0.45 | 101.9
2 | C[C@@H]1C[C@H](NS(=O)(=O)N(C)C)[C@H](CO[C@H]2CC[C@@H](c3cccc(F)c3)CC2)N1c1cc(O)c(F)cn1 [Example 94, N′-((2R,3S,5R)-1-(5-fluoro-4-hydroxypyridin-2-yl)-2-((((CIS)-4-(3-fluorophenyl)cyclohexyl)oxy)methyl)-5-methylpyrrolidin-3-yl)-N,N-dimethyl-sulfamide] | 0.3 | 99.6
3 | C[C@@H]1C[C@H](NS(=O)(=O)N(C)C)[C@H](CO[C@H]2CC[C@@H](c3cccc(F)c3)CC2)N1c1cc(O)c(Cl)cn1 [Example 95, N′-((2R,3S,5R)-1-(5-chloro-4-hydroxypyridin-2-yl)-2-((((CIS)-4-(3-fluorophenyl)cyclohexyl)oxy)methyl)-5-methylpyrrolidin-3-yl)-N,N-dimethyl-sulfamide] | 0.23 | 100.5
4 | CS(=O)(=O)N[C@H]1CCN(c2nccc(O)c2F)[C@H]1CO[C@H]1CC[C@@H](c2cccc(F)c2)CC1 [Example 96, N-((2R,3S)-1-(3-fluoro-4-hydroxypyridin-2-yl)-2-((((CIS)-4-(3-fluorophenyl)cyclohexyl)oxy)methyl)pyrrolidin-3-yl)methanesulfonamide] | 0.23 | 101.6
5 | CS(=O)(=O)N[C@H]1CCN(c2cc(O)c(Cl)cn2)[C@H]1CO[C@H]1CC[C@@H](c2cccc(F)c2)CC1 [Example 97, N-((2R,3S)-1-(5-chloro-4-hydroxypyridin-2-yl)-2-((((CIS)-4-(3-fluorophenyl)cyclohexyl)oxy)methyl)pyrrolidin-3-yl)methanesulfonamide] | 0.6 | 100.9
6 | CS(=O)(=O)N[C@H]1CCN(c2ncc(Cl)c(O)c2F)[C@H]1CO[C@H]1CC[C@@H](c2cccc(F)c2)CC1 [Example 98, N-((2R,3S)-1-(5-chloro-3-fluoro-4-hydroxypyridin-2-yl)-2-((((CIS)-4-(3-fluorophenyl)cyclohexyl)oxy)methyl)pyrrolidin-3-yl)methanesulfonamide] | 0.76 | 101.4
7 | CS(=O)(=O)N[C@H]1CCN(c2cc(O)c(F)cn2)[C@H]1CO[C@H]1CC[C@@H](c2cccc(F)c2)CC1 [Example 99, N-((2R,3S)-1-(5-fluoro-4-hydroxypyridin-2-yl)-2-((((CIS)-4-(3-fluorophenyl)cyclohexyl)oxy)methyl)pyrrolidin-3-yl)methanesulfonamide] | 0.27 | 101.2
8 | COc1c(F)cnc(N2CC[C@H](NS(C)(=O)=O)[C@@H]2CO[C@H]2CC[C@@H](c3cccc(F)c3)CC2)c1F [Example 100, N-((2R,3S)-1-(3,5-difluoro-4-methoxypyridin-2-yl)-2-((((CIS)-4-(3-fluorophenyl)cyclohexyl)oxy)methyl)pyrrolidin-3-yl)methanesulfonamide] | 716 | 99.6
9 | CS(=O)(=O)N[C@H]1CCN(c2ncc(F)c(O)c2F)[C@H]1CO[C@H]1CC[C@@H](c2ccccc2)CC1 [Example 101, N-((2R,3S)-1-(3,5-difluoro-4-hydroxypyridin-2-yl)-2-((((CIS)-4-phenylcyclohexyl)oxy)methyl)pyrrolidin-3-yl)methanesulfonamide] | 2 | 100.5
10 | CS(=O)(=O)N[C@H]1CCN(c2ncc(CO)s2)[C@H]1CO[C@H]1CC[C@@H](c2ccccc2)CC1 [Example 102, N-((2R,3S)-1-(5-(hydroxymethyl)thiazol-2-yl)-2-((((CIS)-4-phenylcyclohexyl)oxy)methyl)pyrrolidin-3-yl)methanesulfonamide] | 4830 | 67.4
11 | COC(=O)c1csc(N2CC[C@H](NS(C)(=O)=O)[C@@H]2CO[C@H]2CC[C@@H](c3ccccc3)CC2)n1 [Example 103, methyl 2-((2R,3S)-3-(methylsulfonamido)-2-((((CIS)-4-phenylcyclohexyl)oxy)methyl)pyrrolidin-1-yl)thiazole-4-carboxylate] | 1190 | 93
12 | COC(=O)c1cnc(N2CC[C@H](NS(C)(=O)=O)[C@@H]2CO[C@H]2CC[C@@H](c3ccccc3)CC2)s1 [Example 104, methyl 2-((2R,3S)-3-(methylsulfonamido)-2-((((CIS)-4-phenylcyclohexyl)oxy)methyl)pyrrolidin-1-yl)thiazole-5-carboxylate] | 1190 | 100
13 | Cc1sc(N2CC[C@H](NS(C)(=O)=O)[C@@H]2CO[C@H]2CC[C@@H](c3ccccc3)CC2)nc1O [Example 105, N-((2R,3S)-1-(4-hydroxy-5-methylthiazol-2-yl)-2-((((CIS)-4-phenylcyclohexyl)oxy)methyl)pyrrolidin-3-yl)methanesulfonamide] | 703 | 97.9
14 | Cc1sc(N2CC[C@H](NS(C)(=O)=O)[C@@H]2CO[C@H]2CC[C@@H](c3ccccc3)CC2)nc1Br [Example 106, N-((2R,3S)-1-(4-bromo-5-methylthiazol-2-yl)-2-((((CIS)-4-phenylcyclohexyl)oxy)methyl)pyrrolidin-3-yl)methanesulfonamide] | 1700 | 98.0
15 | CS(=O)(=O)N[C@H]1CCN(c2nc(O)cs2)[C@H]1CO[C@H]1CC[C@@H](c2ccccc2)CC1 [Example 107, N-((2R,3S)-1-(4-hydroxythiazol-2-yl)-2-((((CIS)-4-phenylcyclohexyl)oxy)methyl)pyrrolidin-3-yl)methanesulfonamide] | 676 | 97.2
16 | CS(=O)(=O)N[C@H]1CCN(c2nc(Br)cs2)[C@H]1CO[C@H]1CC[C@@H](c2ccccc2)CC1 [Example 108, N-((2R,3S)-1-(4-bromothiazol-2-yl)-2-((((CIS)-4-phenylcyclohexyl)oxy)methyl)pyrrolidin-3-yl)methanesulfonamide] | 1120 | 97.4
17 | Cc1nc(N2CC[C@H](NS(C)(=O)=O)[C@@H]2CO[C@H]2CC[C@@H](c3ccccc3)CC2)cs1 [Example 109, N-((2R,3S)-1-(2-methylthiazol-4-yl)-2-((((CIS)-4-phenylcyclohexyl)oxy)methyl)pyrrolidin-3-yl)methanesulfonamide] | 140 | 97.7
18 | CS(=O)(=O)N[C@H]1CCN(c2cscn2)[C@H]1CO[C@H]1CC[C@@H](c2ccccc2)CC1 [Example 110, N-((2R,3S)-2-((((CIS)-4-phenylcyclohexyl)oxy)methyl)-1-(thiazol-4-yl)pyrrolidin-3-yl)methanesulfonamide] | 17.9 | 102
19 | Cn1cccc(N2CC[C@H](NS(C)(=O)=O)[C@@H]2CO[C@H]2CC[C@@H](c3ccccc3)CC2)c1=O [Example 111, N-((2R,3S)-1-(1-methyl-2-oxo-1,2-dihydropyridin-3-yl)-2-((((CIS)-4-phenylcyclohexyl)oxy)methyl)pyrrolidin-3-yl)methanesulfonamide] | 108 | 100
20 | Cn1cc(N2CC[C@H](NS(C)(=O)=O)[C@@H]2CO[C@H]2CC[C@@H](c3ccccc3)CC2)ccc1=O [Example 112, N-((2R,3S)-1-(1-methyl-6-oxo-1,6-dihydropyridin-3-yl)-2-((((CIS)-4-phenylcyclohexyl)oxy)methyl)pyrrolidin-3-yl)methanesulfonamide] | 4650 | 88.2
21 | CS(=O)(=O)N[C@H]1CCN(c2cc(O)c(Cl)cn2)[C@H]1CO[C@H]1CC[C@@H](c2ccccc2)CC1 [Example 113, N-((2R,3S)-1-(5-chloro-4-hydroxypyridin-2-yl)-2-((((CIS)-4-phenylcyclohexyl)oxy)methyl)pyrrolidin-3-yl)methanesulfonamide] | 1.1 | 102.4
22 | CS(=O)(=O)N[C@H]1CCN(c2ncc(Cl)c(O)c2F)[C@H]1CO[C@H]1CC[C@@H](c2ccccc2)CC1 [Example 114, N-((2R,3S)-1-(5-chloro-3-fluoro-4-hydroxypyridin-2-yl)-2-((((CIS)-4-phenylcyclohexyl)oxy)methyl)pyrrolidin-3-yl)methanesulfonamide] | 1.7 | 102.4
23 | COc1ccnc(N2CC[C@H](NS(C)(=O)=O)[C@@H]2CO[C@H]2CC[C@@H](c3ccccc3)CC2)c1F [Example 115, N-((2R,3S)-1-(3-fluoro-4-methoxypyridin-2-yl)-2-((((CIS)-4-phenylcyclohexyl)oxy)methyl)pyrrolidin-3-yl)methanesulfonamide] | 2410 | 93.7
24 | Cn1c(N2CC[C@H](NS(C)(=O)=O)[C@@H]2CO[C@H]2CC[C@@H](c3ccccc3)CC2)cccc1=O [Example 116, N-((2R,3S)-1-(1-methyl-6-oxo-1,6-dihydropyridin-2-yl)-2-((((CIS)-4-phenylcyclohexyl)oxy)methyl)pyrrolidin-3-yl)methanesulfonamide] | 393 | 99.6
